Measured values taken from patent US20110066134A1, “Controlling Drug Transport and Current in Iontophoretic Onychomycosis Treatment” (Nitric Biotherapeutics, Inc., priority 2009, published 2011).
“And” between values parts separate entries of the source, which are not always exact repeats. Equal entries are not always repeated.

Experiments:
clinical = settings: human, in vivo
Description: Both applicator designs were used in clinical studies, including clinical nail samples at various iontophoretic dose levels taken 24 hours post treatment. For an average dose of about 8 mA-min, drug amounts for masked drape clipping assays averaged about 423 ug/g and full drape clippings averaged about 842 ug/g. The clipping sizes and volumes varied (n=80, mean=[…], sd=1.8). The amount of drug found in nail clippings for the masked drape treatments appeared to be lower than expected given the higher current concentration in nail vs. levels found for the full drape treatments at a lower level of nail current.
It is believed that the lower drug levels found during the clinical study from nail clippings in the masked drape applications was the result of samples at the extremities of the nail. As contemplated herein, the presence of a drug delivery gradient is supported by the location of clinical nail samples, the results of current distribution modeling and the cadaver toe experiments.
For example, the current measurement and drug loading maps for cadaver nail and toe as depicted in FIG. 3 indicate a significant gradient. Drug loading at the periphery of the nail was about 26 to 77 times less than drug loading in the center of the nail. Nail clippings for the masked drape group in the clinical studies provided herein were taken about 24 hours post treatment from the distal nail. Samples varied in size and volume, but averaged about 1.8 mm long. This size and location corresponds with the nail sampling performed in the cadaver toe experiments in the category of “peripheral 2” or “remaining” and depicted in FIG. 3A in about the 9 to 12 mm range. The current levels predicted by the model in the same areas correlate well with drug distribution samples, r=0.998, p=0.000.
Applying the cadaver transfer number for nail vs. skin to the in-vivo results yields an estimate for nail and drug delivered for both tissues (based upon resistance ratios calculated from measured voltages during the clinical study.)
FIG. 10 depicts the projected delivery of terbinafine into skin and nail for full drape using cadaver transfer number calculation. The mean level of terbinafine estimated to have been delivered with full drape treatments to patients in the clinical studies using this method is about 12.4 ug skin, 9.4 ug nail, as compared with a mean of about 15 ug skin and 14 ug nail for cadaver toes.

[1] = Cadaver toe delivery testing: iontophoretic terbinafine loading into nail, nail bed and surrounding tissue; type: in vitro ADME
Description: The results of drug loading experiments in cadaver toes reported by Nair [Nair et al., 2009, Pharm Res. 26(9):2194-201] were compared with current measurements made using the current test fixture of FIG. 1 and models for the two tissue groups. The experiments disclosed herein were conducted to determine 1) if a drug delivery gradient existed in masked drape applications, and how that correlated with drug assays in cadaver toes; and 2) to determine the proportion of current flowing in soft tissue vs. into nail in cadaver toe delivery, and to compare that with drug loading found by Nair in the two tissue types. It is believed that the transfer efficiency is higher in nail than into soft tissue.
Cadaver Toe Delivery Testing: Six cadaver toes were soaked in physiologic saline prior to treatment. Each terbinafine loaded applicator type (masked drape and full drape) was placed on the toe and iontophoretic treatment of 0.5 mA for 20 min was delivered. Post treatment, the nails, and sections of nail bed and surrounding tissue, were excised and analyzed. The amount of loaded terbinafine was compiled for each section. The iontophoretic power source and general configuration for the applicator on the cadaver toe are depicted in FIGS. 2A and 2B. Additional details regarding methods used and experimental details for cadaver toe delivery tests can be found in [Nair et al., 2009, Pharm Res. 26(9):2194-201].
FIG. 3A depicts drug assay results from cadaver nails following iontophoresis using a masked drape applicator, while FIG. 3B depicts current measurements taken at the same current levels through cadaver nail into agarose. Terbinafine sample data was compiled allocating samples to the same relative spacing as current sensing nodes in the current test fixture of FIG. 1. […] Results of finite element analysis for essentially masked electrodes over tissue that illustrate gradients with higher resolution can also be seen as provided by Kresteva and Papazov [Krasteva et al., Biomed Eng Online. 2002 Dec. 16; 1:7].
where tx is the transport number, F is Faraday's constant, A is area of application and zx is charge. For a particular “membrane” or “tissue type”, tx is the ratio of (charge, mobility and drug concentration of the charge carrier) to the product of these for all charge carriers, i is current and vcx is an electroosmotic term. Rather than determine individual elements of Kalia's formula, an aggregate transport number of skin (tskin) and nail & nail bed (tnail) can be calculated, essentially aggregating the factors and segmenting them into soft tissue plus nail/nail bed.
Where l is the amount of drug loaded for skin or nail. For a given dose in uA-min, the amount of terbinafine loaded into cadaver nail & nail bed vs. cadaver skin vs. delivered dose and calculated transfer number is
ltotal=lskin+lnail,lskin=dskin×tskin and lnail=dnail×tnail in ug/mA-min, (5)
where dskin, dnail is the product of current through skin (or nail) and time (dose), tskin, tnail is an aggregate of all factors related to delivery into skin (or nail) and lskin, lnail is the amount of terbinafine loaded into skin (or nail).
Table III lists the areas of delivery, current and transfer number calculations for the 6 cadaver toe trials. FIG. 9 depicts the average transport numbers including values calculated for current (for reference), skin alone in Franz cell and Rat.

[2] = cadaver toe, full drape, 0.5 mA for 20 min, average of 6 trials
[3] = cadaver toe, full drape, 0.5 mA for 20 min, individual Trials 1-6

mean level of terbinafine estimated to have been delivered to nail (clinical): ~9.4 µg
mean level of terbinafine estimated to have been delivered to skin (clinical): about 12.4 ug
concentration at 24 h (clinical; Mean Nail Levels, Applicator Design Nail/Skin): 988000 ng/g
concentration at 24 h (clinical; average drug amount in full drape clippings): ~842000 ng/g
concentration at 24 h (clinical; average drug amount in masked drape clipping assays): ~423000 ng/g
tf nail = (ug/cm^2)/(dose/cm^2), Avg [1, 2]: 5.180 (ug/cm^2)/(dose/cm^2)
tf skin = (ug/cm^2)/(dose/cm^2), Avg [1, 2]: 2.181 (ug/cm^2)/(dose/cm^2)
delivery into skin compared with nail & nail bed ([1]; cadaver toes, about 0.5 mA for 20 min, p=0.78, n=6): statistical equivalence
mean terbinafine delivered to nail ([1]; cadaver toes, full drape): ~14 µg
mean terbinafine delivered to skin ([1]; cadaver toes, full drape): about 15 ug
SMILES: CN(C/C=C/C#CC(C)(C)C)Cc1cccc2ccccc12 [terbinafine]
tf nail = (ug/cm^2)/(dose/cm^2) [1, 3]: 6.358 (ug/cm^2)/(dose/cm^2) and 7.438 (ug/cm^2)/(dose/cm^2) and 3.805 (ug/cm^2)/(dose/cm^2) and 2.328 (ug/cm^2)/(dose/cm^2) and 3.917 (ug/cm^2)/(dose/cm^2) and 7.237 (ug/cm^2)/(dose/cm^2)
tf skin = (ug/cm^2)/(dose/cm^2) [1, 3]: 1.745 (ug/cm^2)/(dose/cm^2) and 1.632 (ug/cm^2)/(dose/cm^2) and 1.975 (ug/cm^2)/(dose/cm^2) and 2.368 (ug/cm^2)/(dose/cm^2) and 1.961 (ug/cm^2)/(dose/cm^2) and 3.403 (ug/cm^2)/(dose/cm^2)
aggregate transport number for the nail-only application compared with nail in the full drape application ([1]; cadaver toe, n=4, p=0.032): less than the factor for nail in the full drape application
